Patent publication US20150045291A1, “LIPOPEPTIDE CONJUGATES COMPRISING SPHINGOLIPID AND HIV GP41 DERIVED PEPTIDES” (priority 2012, published 2015)
Like-named read-outs stand apart in the source and are kept apart here. Starred links: 1 amine or outer side, 2 acyl side, 3 side chain; linkers in the order of their positions; H or OH if unused. Residues, ends and D or L forms follow the SMILES beside them. Groups on a side chain read outwards from the residue. *: point of attachment. Sphinganine = CCCCCCCCCCCCCCC[C@@H](O)[C@H](CO)N*; CO = O=C([*:1])[*:2]

System: fully infectious HIV-1 HXB2
[1] = read-out: IC50 (inhibitory concentration at 50% infectivity), TZM-bl cells, fully contagious HXB2 HIV-1
[2] = fully infectious HIV-1 system (Table 2)

Compound	IC50 [2] [nM]	also measured
CCCCCCCCCCCCCCC[C@@H](O)[C@H](CO)NC(=O)NCCCC[C@H](NC(=O)[C@H](CC(N)=O)NC(=O)[C@H](CCCCN)NC(=O)[C@H](CCC(=O)O)NC(=O)[C@H](CCC(N)=O)NC(=O)[C@H](CCC(N)=O)NC(=O)[C@H](CC(N)=O)NC(=O)[C@H](CCC(N)=O)NC(=O)[C@H](CO)NC(=O)[C@H](CCC(=O)O)NC(=O)[C@H](CCC(=O)O)NC(=O)[C@@H](NC(=O)[C@H](CC(C)C)NC(=O)[C@H](CO)NC(=O)[C@H](Cc1c[nH]cn1)NC(=O)[C@@H](NC(=O)[C@H](CC(C)C)NC(=O)[C@H](CO)NC(=O)[C@@H](NC(=O)[C@@H](N)Cc1ccc(O)cc1)[C@@H](C)O)[C@@H](C)CC)[C@@H](C)CC)C(N)=O [DP19K-sphing] (H-YTSLIHSLIEESQNQQEKNK([CO-Sphinganine])-NH2)	–	IC50 [1]: 350 nM
CC[C@H](C)[C@H](NC(=O)[C@H](CC(C)C)NC(=O)[C@H](CO)NC(=O)[C@H](Cc1c[nH]cn1)NC(=O)[C@@H](NC(=O)[C@H](CC(C)C)NC(=O)[C@H](CO)NC(=O)[C@@H](NC(=O)[C@@H](N)Cc1ccc(O)cc1)[C@@H](C)O)[C@@H](C)CC)C(=O)N[C@@H](CCC(=O)O)C(=O)N[C@@H](CCC(=O)O)C(=O)N[C@@H](CO)C(=O)N[C@@H](CCC(N)=O)C(=O)N[C@@H](CC(N)=O)C(=O)N[C@@H](CCC(N)=O)C(=O)N[C@@H](CCC(N)=O)C(=O)N[C@@H](CCC(=O)O)C(=O)N[C@@H](CCCCN)C(=O)N[C@@H](CC(N)=O)C(=O)N[C@@H](CCCCN)C(N)=O [DP19K] (H-YTSLIHSLIEESQNQQEKNK-NH2; C-terminus assumed)	2210 ± 507	–
CC[C@H](C)[C@H](NC(=O)CNC(=O)[C@H](Cc1c[nH]c2ccccc12)NC(=O)[C@@H](NC(=O)[C@@H](NC(=O)[C@H](CC(C)C)NC(=O)[C@H](CCC(N)=O)NC(=O)[C@H](CC(C)C)NC(=O)[C@@H](N)CC(C)C)[C@@H](C)O)C(C)C)C(=O)N[C@@H](CCCCN)C(=O)N[C@@H](CCC(N)=O)C(=O)N[C@@H](CC(C)C)C(=O)N[C@@H](CCC(N)=O)C(=O)N[C@@H](C)C(N)=O [N14, LLQLTVWGIKQLQA] (H-LLQLTVWGIKQLQA-NH2; C-terminus assumed)	> 4000	–
CC[C@H](C)[C@H](NC(=O)[C@H](CCC(N)=O)NC(=O)[C@H](CC(C)C)NC(=O)[C@H](Cc1c[nH]c2ccccc12)NC(=O)[C@H](CC(C)C)NC(=O)[C@@H](NC(=O)[C@H](CCC(N)=O)NC(=O)[C@H](CC(C)C)NC(=O)[C@H](CCCNC(=N)N)NC(=O)[C@H](C)NC(=O)[C@@H](NC(=O)[C@H](CCCCN)NC(=O)[C@@H](N)CCC(N)=O)[C@@H](C)CC)[C@@H](C)O)C(=O)NCC(=O)N[C@H](C(=O)N[C@@H](CC(C)C)C(=O)N[C@@H](CC(C)C)C(N)=O)C(C)C [N17 scrambled, QKIARLQTLWLQIGVLL] (H-QKIARLQTLWLQIGVLL-NH2; C-terminus assumed)	> 4000	–
CC[C@H](C)[C@H](NC(=O)CNC(=O)[C@H](Cc1c[nH]c2ccccc12)NC(=O)[C@@H](NC(=O)[C@@H](NC(=O)[C@H](CC(C)C)NC(=O)[C@H](CCC(N)=O)NC(=O)[C@H](CC(C)C)NC(=O)[C@@H](N)CC(C)C)[C@@H](C)O)C(C)C)C(=O)N[C@@H](CCCCN)C(=O)N[C@@H](CCC(N)=O)C(=O)N[C@@H](CC(C)C)C(=O)N[C@@H](CCC(N)=O)C(=O)N[C@@H](C)C(=O)N[C@@H](CCCNC(=N)N)C(=O)N[C@H](C(=O)N[C@@H](CC(C)C)C(=O)N[C@@H](CCCCN)C(N)=O)[C@@H](C)CC [N17K, LLQLTVWGIKQLQARILK] (H-LLQLTVWGIKQLQARILK-NH2; C-terminus assumed)	> 4000	–
CCCCCCCCCCCCCCC[C@@H](O)[C@H](CO)NC(=O)NCCCC[C@H](NC(=O)[C@H](CC(C)C)NC(=O)[C@@H](NC(=O)[C@H](CCCNC(=N)N)NC(=O)[C@H](C)NC(=O)[C@H](CCC(N)=O)NC(=O)[C@H](CC(C)C)NC(=O)[C@H](CCC(N)=O)NC(=O)[C@H](CCCCN)NC(=O)[C@@H](NC(=O)CNC(=O)[C@H](Cc1c[nH]c2ccccc12)NC(=O)[C@@H](NC(=O)[C@@H](NC(=O)[C@H](CC(C)C)NC(=O)[C@H](CCC(N)=O)NC(=O)[C@H](CC(C)C)NC(=O)[C@@H](N)CC(C)C)[C@@H](C)O)C(C)C)[C@@H](C)CC)[C@@H](C)CC)C(N)=O [N17K-sphing, LLQLTVWGIKQLQARILK-Sphinganine] (H-LLQLTVWGIKQLQARILK([CO-Sphinganine])-NH2)	291 ± 102	IC50 [1]: 287 nM
CC(C)C[C@H](NC(=O)[C@H](CCCNC(=N)N)NC(=O)[C@H](CCCNC(=N)N)NC(=O)[C@H](C)NC(=O)[C@H](CCC(N)=O)NC(=O)[C@H](CC(N)=O)NC(=O)[C@H](CCC(N)=O)NC(=O)[C@H](CCCCN)NC(=O)[C@H](CO)NC(=O)CNC(=O)[C@H](Cc1c[nH]c2ccccc12)NC(=O)[C@@H](NC(=O)[C@H](CO)NC(=O)[C@H](CC(C)C)NC(=O)[C@H](CCC(N)=O)NC(=O)[C@H](CCC(=O)O)NC(=O)[C@@H](N)CC(C)C)C(C)C)C(N)=O [N17mut (a, d), LEQLSVWGSKQNQARRL] (H-LEQLSVWGSKQNQARRL-NH2; C-terminus assumed)	> 4000	–
CC[C@H](C)[C@H](NC(=O)[C@H](CCCNC(=N)N)NC(=O)[C@H](C)NC(=O)[C@H](CC(C)C)NC(=O)[C@H](CC(C)C)NC(=O)[C@H](CCC(N)=O)NC(=O)[C@H](CCCCN)NC(=O)[C@@H](NC(=O)[C@H](CCCCN)NC(=O)[C@H](Cc1c[nH]c2ccccc12)NC(=O)[C@H](CCC(N)=O)NC(=O)[C@@H](NC(=O)[C@H](CC(C)C)NC(=O)[C@H](CCC(N)=O)NC(=O)[C@H](CC(C)C)NC(=O)[C@@H](N)CCC(=O)O)[C@@H](C)O)[C@@H](C)CC)C(=O)N[C@@H](CC(C)C)C(=O)N[C@@H](CCCCN)C(N)=O [N17mut (e, g) K, ELQLTQWKIKQLLARILK] (H-ELQLTQWKIKQLLARILK-NH2; C-terminus assumed)	> 4000	–
CCCCCCCCCCCCCCC[C@@H](O)[C@H](CO)NC(=O)NCCCC[C@H](NC(=O)[C@H](CC(C)C)NC(=O)[C@@H](NC(=O)[C@H](CCCNC(=N)N)NC(=O)[C@H](C)NC(=O)[C@H](CC(C)C)NC(=O)[C@H](CC(C)C)NC(=O)[C@H](CCC(N)=O)NC(=O)[C@H](CCCCN)NC(=O)[C@@H](NC(=O)[C@H](CCCCN)NC(=O)[C@H](Cc1c[nH]c2ccccc12)NC(=O)[C@H](CCC(N)=O)NC(=O)[C@@H](NC(=O)[C@H](CC(C)C)NC(=O)[C@H](CCC(N)=O)NC(=O)[C@H](CC(C)C)NC(=O)[C@@H](N)CCC(=O)O)[C@@H](C)O)[C@@H](C)CC)[C@@H](C)CC)C(N)=O [N17mut (e, g) K-sphing, ELQLTQWKIKQLLARILK-Sphinganine] (H-ELQLTQWKIKQLLARILK([CO-Sphinganine])-NH2)	120 ± 40	–
CC[C@H](C)[C@H](NC(=O)[C@H](CCC(=O)O)NC(=O)[C@H](CCCNC(=N)N)NC(=O)[C@H](CC(=O)O)NC(=O)[C@H](Cc1c[nH]c2ccccc12)NC(=O)[C@H](CCC(=O)O)NC(=O)[C@H](CCSC)NC(=O)[C@H](Cc1c[nH]c2ccccc12)NC(=O)[C@@H](NC(=O)[C@@H](N)[C@@H](C)O)[C@@H](C)O)C(=O)N[C@@H](CC(N)=O)C(=O)N[C@@H](CC(N)=O)C(=O)N[C@@H](Cc1ccc(O)cc1)C(=O)N[C@H](C(=O)N[C@@H](CCCCN)C(N)=O)[C@@H](C)O [PBDK, TTWMEWDREINNYTK] (H-TTWMEWDREINNYTK-NH2; N-terminus and C-terminus assumed)	–	IC50 (read-out: IC50 (nM), […], fully infectious HIV-1 system (Table 3)): 5350 ± 1700 nM; IC90 (read-out: IC90 (nM), […], fully infectious HIV-1 system (Table 3)): > 10000 nM
